# Laboratory results: patent US8003663B2, “Pyrazolo[3,4-b]pyridine compounds, and their use as PDE4 inhibitors” (Glaxo Group Limited, priority 2006, dated 2011)
# Entries after “also recorded” stand apart in the source; their conditions may differ. Where a name gives a salt, the structure may show the parent alone.
# Columns and labels:
# [1] = tested on: LPS-induced nasal neutrophilia in rats; assay: In vivo assay 2: LPS induced nasal neutrophilia in rats, intranasally administered PDE4 inhibitors; settings: rat, i.n. aqueous solution, about 30 minutes prior to LPS
# Source text: This assay is an animal model of acute inflammation in the nose—specifically neutrophilia induced by lipopolysaccharide (LPS)—and allows the study of putative inhibition of such neutrophilia (anti-inflammatory effect) by an intranasally (i.n.) administered PDE4 inhibitor (“drug”). The PDE4 inhibitor is preferably in the form of an aqueous suspension or aqueous solution. Bolus, i.n. administration allows topical delivery to the nose.
# Animals: Male CD rats (Sprague Dawley derived), weighing between 300-350 g are supplied by Charles River, UK and transported to the test site. On arrival at the test site, the animals are housed in groups of 4 or 5 per cage and complete a minimum acclimatisation period of 7 days. The animals are housed in solid bottomed cages using grade 8 sawdust. The bedding and nesting materials are changed 3 times per week. Diet comprises SDS diet R1 pelleted food given ad lib. Pasteurised animal grade drinking water is supplied and changed daily.
# Lipopolysaccharide (Serotype: 0127:B8, e.g. available from Sigma, UK; e.g. L3129 prepared by phenol extraction) is used for all studies and is dissolved in phosphate-buffered saline (PBS).
# Tween 80™ (e.g. available from Sigma e.g. 023K 01575). A mixture of 0.2% Tween 80™ in phosphate buffered saline (PBS) is prepared as vehicle for solution compositions. The Sigma catalogue 2004-2005 and The Handbook of Pharmaceutical Excipients (HPE) 4th edition 2003 pp. 479-483 define Tween 80™ as a brand of polysorbate 80 (according to HPE, polysorbate 80 is also named polyoxyethylene 20 sorbitan monooleate, i.e. having been copolymerised with about 20 moles of ethylene oxide for each mole of sorbitol and/or sorbitol anhydrides used).
# The PDE4 inhibitor compound or salt of the invention (“drug”) is preferably used in size-reduced (e.g. micronised) form, for example according to the Micronisation Example(s) disclosed herein.
# A solution of compound (0.7 mg/ml) is generally prepared by adding 0.2% Tween 80™ in phosphate buffered saline (PBS) to a pre-weighed micronised sample of the drug. The solution composition is sonicated, e.g. for approximately 2 min, and is observed to be a solution (if it is a solution) by visual assessment. A fixed volume of 50 microliters (25 microliters into each nostril) of either the drug-containing solution composition or a saline/Tween 80™ vehicle is administered to all animals. Each animal weighs, on average, 350 g. To achieve a dose of 100 μg/kg (100 ug/kg), each animal receives a total of 35 μg (35 ug) of the drug. The dose volume is 50 microliters (25 microliters to each nostril), and therefore a concentration of 35 μg (ug) per 50 microliters (0.7 mg/ml) is prepared. To achieve lower dose concentrations, serial dilutions are prepared in saline/Tween 80™. […]
# [2] = tested on: LPS-induced pulmonary neutrophilia in rats; assay: In Vivo Assay 1: LPS induced pulmonary neutrophilia in rats, intratracheally administered PDE4 inhibitors; design: species or system rat; settings: for arithmetic mean percentage inhibition of LPS-induced pulmonary neutrophilia / percentage mean inhibition of LPS-induced pulmonary neutrophilia: rat, about 2 hours prior to LPS; for arithmetic mean percentage inhibition of LPS-induced pulmonary neutrophilia: i.t. dry powder blended in lactose; for percentage mean inhibition of LPS-induced pulmonary neutrophilia: i.t. aqueous solution; for duration of action: preliminary tests
# Source text: This assay is an animal model of acute inflammation in the lung—specifically neutrophilia induced by lipopolysaccharide (LPS)—and allows the study of putative inhibition of such neutrophilia (anti-inflammatory effect) by an intratracheally (i.t.) administered PDE4 inhibitor (“drug”). The PDE4 inhibitors are suitably in dry powder, aqueous solution or aqueous suspension form. I.t. administration is one model of inhaled administration, allowing topical delivery to the lung.
# Animals: Male CD (Sprague Dawley Derived) rats supplied by Charles River, United Kingdom are housed in groups of 5 rats per cage, acclimatised after delivery for at least 7 days with bedding/nesting material regularly changed, fed on SDS diet R1 pelleted food given ad lib, and supplied with daily-changed pasteurised animal grade drinking water.
# Device for dry powder administration: For these studies, a Penn Century DP-4 dry powder intratracheal (i.t.) delivery device (insufflator) is used for administration of a dry powder blend of vehicle (inhalation grade lactose) and the PDE4 inhibitor compound or salt of the invention (“drug”). Each device is numbered and the sample loading chamber is unscrewed from the main device and weighed. The i.t. delivery needle is also weighed. The drug+lactose blend or inhalation grade lactose (vehicle control) is then added to the sample chamber and this is then re-weighed. The sample chamber is fitted back on to the main device to prevent any drug being lost. This procedure is repeated for all of the Penn century devices to be used in the study (one separate device for each animal). After dosing to the animals, the sample chambers and needles are re-weighed in order to determine the amount of sample that was expelled from the device.
# Device for aqueous solution administration: A blunt dosing needle, whose forward end is slightly angled to the needle axis, is used, with a flexible plastic portex canula inserted into the needle. The portex cannula is inserted into the lumen of the blunt stainless steel dosing needle and this is carefully inserted into the back of the animal's throat and into the trachea via the larynx. A known volume (200 microliters) of the vehicle (0.2% Tween 80™ in saline) or of the solution (or suspension) drug composition is administered into the trachea using a plastic syringe that is attached to the portex cannula and dosing needle. A new internal cannula is used for each different drug group. After dosing, the needle is removed from the trachea and the animals are removed from the table and continually observed until they recover from the effects of anaesthesia. The animals are then returned to the holding cages and given free access to food and water, and are observed and any unusual behavioural changes noted. (Aqueous suspensions can be handled generally similarly.)
# Drugs and Materials: Lipopolysaccharide (LPS) (Serotype:0127:B8, e.g. from Sigma, UK; e.g. L3129 prepared by phenol extraction) is dissolved in phosphate-buffered saline (PBS).
# For dry powder, aqueous solution or aqueous suspension administration, PDE4 inhibitors are preferably used in size-reduced (e.g. micronised) form, for example according to the Micronisation Example(s) disclosed herein.
# For dry powder administration of the drug, the PDE4 inhibitor compound or salt of the invention (drug) is administered as a dry powder blended with inhalation-grade (respiratory-grade) lactose, i.e. as a dry powder composition. The target quantity of dry powder composition administered i.t. to each animal is 2 mg. This remains constant throughout the studies. To achieve different doses, blends of the drug dry powder and lactose, containing different concentrations of the PDE4 inhibitor compound or salt of the invention (drug), are prepared. […]
# [3] = cited from earlier work
# [4] = cited from earlier work; remark: listed apart in the source
# [5] = orally 500 ug once daily for 9 days; daily intranasal allergen provocation (pollen extracts); cited from earlier work
compound,measurement,setting,value
"CCc1nc2c(cnn2CC)c(NC2CCOCC2)c1CNC(=O)c1ccc(NC(=O)CCCCCCCN(C)CCO)cc1 [Example 1A2, N-{[1,6-diethyl-4-(tetrahydro-2H-pyran-4-ylamino)-1H-pyrazolo[3,4-b]pyridin-5-yl]methyl}-4-({8-[(2-hydroxyethyl)(methyl)amino]octanoyl}amino)benzamide monohydrochloride]",percentage inhibition (arithmetic mean) of LPS-induced nasal neutrophilia,[1]; about 1 micrograms/kg,essentially no inhibition
same,percentage inhibition (arithmetic mean) of LPS-induced nasal neutrophilia,[1]; about 3 micrograms/kg,small and non-statistically-significant inhibition
same,percentage inhibition (arithmetic mean) of LPS-induced nasal neutrophilia,[1]; about 10 micrograms/kg,about 62%
same,percentage inhibition (arithmetic mean) of LPS-induced nasal neutrophilia,[1]; about 100 micrograms/kg,about 79%
same,arithmetic mean percentage inhibition of LPS-induced pulmonary neutrophilia,[2]; about 10 micrograms/kg,about 29%
same,arithmetic mean percentage inhibition of LPS-induced pulmonary neutrophilia,[2]; about 30 micrograms/kg,about 44%
same,arithmetic mean percentage inhibition of LPS-induced pulmonary neutrophilia,[2]; about 100 micrograms/kg,about 39%
same,arithmetic mean percentage inhibition of LPS-induced pulmonary neutrophilia,[2]; about 300 micrograms/kg,about 55%
"CCc1nc2c(cnn2CC)c(NC2CCOCC2)c1CNC(=O)c1ccc(NC(=O)CCCCCCCN(C)CCO)cc1 [Example 1A1, N-{[1,6-Diethyl-4-(tetrahydro-2H-pyran-4-ylamino)-1H-pyrazolo[3,4-b]pyridin-5-yl]methyl}-4-({8-[(2-hydroxyethyl)(methyl)amino]octanoyl}amino)benzamide dihydrochloride]",percentage mean inhibition of LPS-induced pulmonary neutrophilia,"[2]; about 10 micrograms/kg, dihydrochloride",about 33%
same,percentage mean inhibition of LPS-induced pulmonary neutrophilia,"[2]; about 30 micrograms/kg, dihydrochloride",about 56%
same,percentage mean inhibition of LPS-induced pulmonary neutrophilia,"[2]; about 100 micrograms/kg, dihydrochloride",about 76%
same,percentage mean inhibition of LPS-induced pulmonary neutrophilia,[2]; about 300 micrograms/kg,about 74%
"CCc1nc2c(cnn2CC)c(NC2CCOCC2)c1CNC(=O)c1ccc(NC(=O)CCCCCCCN(C)CCO)cc1 [N-{[1,6-diethyl-4-(tetrahydro-2H-pyran-4-ylamino)-1H-pyrazolo[3,4-b]pyridin-5-yl]methyl}-4-({8-[(2-hydroxyethyl)(methyl)amino]octanoyl}amino)benzamide]",duration of action,[2]; after i.t. administration to the rat as a dry powder,4 h
same,duration of action,[2]; after i.t. administration to the rat as an aqueous solution,≥ 2 h
Nc1nc2c([nH]1)c(=O)n(CC1CC1)c(=O)n2CC1CC1 [cipamfylline],effectiveness in the treatment of atopic dermatitis patients,[3]; 0.15% cream versus vehicle and hydrocortisone 17-butyrate (0.1%) cream,"significantly more effective than vehicle, but significantly less effective than hydrocortisone 17-butyrate (0.1%) cream"
"CCc1nc2c(cnn2CC)c(NC2CCOCC2)c1CNC(=O)c1ccc(NC(=O)CCCCCCCN(C)CCO)cc1 [Example 1B, N-{[1,6-diethyl-4-(tetrahydro-2H-pyran-4-ylamino)-1H-pyrazolo[3,4-b]pyridin-5-yl]methyl}-4-({8-[(2-hydroxyethyl)(methyl)amino]octanoyl}amino)benzamide]",percentage mean inhibition of LPS-induced pulmonary neutrophilia,[2]; about 10 micrograms/kg,about 29%
same,percentage mean inhibition of LPS-induced pulmonary neutrophilia,[2]; about 30 micrograms/kg,about 75%
same,percentage mean inhibition of LPS-induced pulmonary neutrophilia,[2]; about 100 micrograms/kg,about 59%
COc1ccc([C@]2(C#N)CC[C@@H](C(=O)O)CC2)cc1OC1CCCC1 [cilomilast],forced expiratory volume in 1s (FEV1) in COPD patients,[4]; 15 mg orally twice daily,appears to improve forced expiratory volume in 1s (FEV1)
same,antiinflammatory effects in COPD patients,"[4]; human, in vivo",appears to have anti-inflammatory effects; also recorded: appears to have antiinflammatory effects
"COc1ccc(C2CNC(=O)NC2)cc1O[C@H]1C[C@@H]2CC[C@H]1C2 [CP80,633]",inflammatory parameters in atopic dermatitis patients,"[3]; 0.5% ointment, twice daily topical application",reductions of inflammatory parameters
O=C(Nc1c(Cl)cncc1Cl)c1ccc(OC(F)F)c(OCC2CC2)c1 [roflumilast],FEV1 in COPD patients,"[4]; human, in vivo",appears to show small improvements in FEV1
same,rhinal airflow during the treatment period (compared to placebo),[5],effective in improving rhinal airflow
